In patent publication US20040029910A1, “Protoberberine derivatives which inhibit activity of the mitogen-activated protein kinase” (priority 2000, published 2004):

Columns and labels:
[1] = system: KGY246 cells, wild type Saccharomyces pombe; experiment: Minimum inhibitory concentration (MIC) on Schizosaccharomyces pombe; type: cell-based; details: YE^AU medium; minimal concentration at which cell number stayed constant; 10% ethanol as solvent
Experimental: Measurement of Minimum Inhibitory Concentration(MIC) of Protoberberine Derivatives on Schizosaccharomyces pombe
KGY246 cells, wild type Saccharomyces pombe, were cultured in rich media YE^AU (yeast extract, peptone, malt extract, dextrose, agar: pH 6.2)containing 0.75 mg/L adenine and uracil to exponential phase. To determine minimum inhibitory concentration of each protoproberberine derivative, cells in exponential phase were transferred to YE^AU medium containing variable concentrations of protoberberine derivatives and cell number was measured every 3 hour. Thereafter, the minimal concentration on which cell number was maintained constantly was determined as minimum inhibitory concentration. The minimum inhibitory concentrations of protoberberine derivatives 13-(4-t-butylbenzyl)berberine chloride, 13-(4-(t-butyldimetylsilyloxy)benzyl)berberine chloride and 2,3,9,10-tetrapropoxyprotoberberine iodide of the present invention were 20 ug/mL, 7 ug/mL and 20 ug/mL respectively. To minimize inhibition by solvent itself, 10% ethanol was used as a solvent of protoberberine derivatives. The processes of cell culture and measurement of cell number described above were repeated using 13-benzylberberine iodide, 13-(4-chlorobenzyl)berberine iodide, 13-(3-bromobenzyl)berberine iodide, 13-(2,3-dichlorobenzyl) berberine chloride, 13-(2-chloro-6-fluorobenzyl)berberine chloride, 13-(4-fluoro-2-trifluoromethylbenzyl)berberine chloride, 13-(2,3,4,5,6-pentafluorobenzyl)berberine chloride, 13-(2,3,5,6-tetrafluoro-4-trifluoromethylbenzyl) berberine chloride, 13-(4-methylbenzyl)berberine chloride, 13-(2,4-dimethylbenzyl)berberine chloride, 13-(4-methyl-3-nitrobenzyl)berberine chloride, 13-(3-trifluoromethyl benzyl)berberine chloride, 13-(4-methoxybenzyl)berberine chloride, 13-(4-trifluoromethoxybenzyl)berberine chloride, 13-(4-methoxycarbonylbenzyl)berberine chloride, 13-(4-i-propylbenzyl)berberine chloride. These compounds also had the minimum concentration of inhibition at the concentration of 18-22 ug/mL.

[2] = system: knock-out mutant of wis1 (JM544); experiment: Growth (cell number) of wis1 knock-out mutant; type: cell-based, Schizosaccharomyces pombe; details: for inhibition of the activity of Wis1 kinase, concluded from effects on knock-out mutants: conclusion from growth of knock-out mutants; for inhibition of the knock-out mutant of wis1 (in words): table 5
Experimental: To investigate the effect of protoberberine derivatives on the growth of cells, the cells of each strain were cultured in rich medium YE^AU to exponential phase(5×10^7 cells/mL). […]

[3] = system: knock-out mutant of spc1 (KS1366); experiment: Growth (cell number) of spc1 knock-out mutant; type: cell-based, Schizosaccharomyces pombe; details: for inhibition of the knock-out mutant of spc1 (in words): table 6
Experimental: To investigate the effect of protoberberine derivatives on the growth of cells, the cells of each strain were cultured in rich medium YE^AU to exponential phase(5×10^7 cells/mL). […] Then cell number was measured every 3 hours.

[4] = system: knock-out mutant of spm1 in Mhk1-Spm1 pathway (TZs69); experiment: Growth (cell number) of spm1 knock-out mutant; type: cell-based, Schizosaccharomyces pombe
Experimental: (§1) To investigate the effect of protoberberine derivatives on the growth of cells, the cells of each strain were cultured in rich medium YE^AU to exponential phase(5×10^7 cells/mL). These cells were transferred to YE^AU medium and cultured for 12 hours. Then cell number was measured every 3 hours.

[5] = system: knock-out mutant of byr2 in Ras-Byr2 pathway (SPSU); experiment: Growth (cell number) of byr2 knock-out mutant; type: cell-based, Schizosaccharomyces pombe
Experimental: as §1

[6] = system: knock-out mutant of win1 (ED1388); experiment: Growth (cell number) of win1 knock-out mutant; type: cell-based, Schizosaccharomyces pombe; details: Table 7, win1 knock-out
Experimental: as §1
(§2) The knock-out mutant of win1 and wis4 was cultured and treated with 13-(4-t-butylbenzyl)berberine chloride, 13-(4-(t-butyldimethylsilyloxy)benzyl)berberine chloride or 2,3,9,10-tetrapropoxyprotoberberine iodide of the compounds 13-benzylberberine iodide, 13-(4-chloro benzyl)berberine iodide, 13-(3-bromobenzyl)berberine iodide, 13-(2,3-dichlorobenzyl)berberine chloride, 13-(2-chloro-6-fluorobenzyl)berberine chloride, 13-(4-fluoro-2-trifluoromethylbenzyl)berberine chloride, 13-(2,3,4,5,6-pentafluorobenzyl)berberine chloride, 13-(2,3,5,6-tetra fluoro-4-trifluoromethylbenzyl)berberine chloride, 13-(4-methylbenzyl)berberine chloride, 13-(2,4-dimethylbenzyl) berberine chloride, 13-(4-methyl-3-nitrobenzyl)berberine chloride, 13-(3-trifluoromethylbenzyl)berberine chloride, 13-(4-methoxybenzyl)berberine chloride, 13-(4-trifluoro methoxybenzyl)berberine chloride, 13-(4-methoxycarbonyl benzyl)berberine chloride, 13-(4-t-butylbenzyl)berberine chloride, 13-(4-1-propylbenzyl) berberine chloride, 13-(4-(t-butyldimethylsilyloxy)benzyl) berberine chloride, 13-(4-t-butylbenzyl)palmatine iodide, 13-(4-(t-butyldimethyl silyloxy)benzyl)palmatine chloride and 2,3,9,10-tetra propoxyprotoberberine iodide.

[7] = system: knock-out mutant of wis4 (ED1292); experiment: Growth (cell number) of wis4 knock-out mutant; type: cell-based, Schizosaccharomyces pombe; details: Table 8, wis4 knock-out
Experimental: as §1, §2

[8] = Table 5, wis1 knock-out, time 12, miconazole 3 ug/mL
[9] = Table 5, wis1 knock-out, time 15, miconazole 3 ug/mL
[10] = Table 5, wis1 knock-out, time 18, miconazole 3 ug/mL
[11] = Table 5, wis1 knock-out, time 21, miconazole 3 ug/mL
[12] = Table 5, wis1 knock-out, time 24, miconazole 3 ug/mL
[13] = Table 6, spc1 knock-out, time 15, miconazole 3 ug/mL
[14] = Table 6, spc1 knock-out, time 18, miconazole 3 ug/mL
[15] = Table 6, spc1 knock-out, time 21, miconazole 3 ug/mL
[16] = Table 6, spc1 knock-out, time 24, miconazole 3 ug/mL
[17] = Table 4, spm1 knock-out, time 12, miconazole 3 ug/mL
[18] = Table 4, spm1 knock-out, time 15, miconazole 3 ug/mL
[19] = Table 4, spm1 knock-out, time 18, miconazole 3 ug/mL
[20] = Table 4, spm1 knock-out, time 21, miconazole 3 ug/mL
[21] = Table 4, spm1 knock-out, time 24, miconazole 3 ug/mL
[22] = Table 3, byr2 knock-out, time 12, miconazole 3 ug/mL
[23] = Table 3, byr2 knock-out, time 15, miconazole 3 ug/mL
[24] = Table 3, byr2 knock-out, time 18, miconazole 3 ug/mL
[25] = Table 3, byr2 knock-out, time 21, miconazole 3 ug/mL
[26] = Table 3, byr2 knock-out, time 24, miconazole 3 ug/mL

| Compound | minimum inhibitory concentration [1] | cell number [2, 8] | cell number [2, 9] | cell number [2, 10] | cell number [2, 11] | cell number [2, 12] | inhibition of the activity of Wis1 kinase, concluded from effects on knock-out mutants [2] | inhibition of the knock-out mutant of wis1 (in words) [2] | cell number [3, 13] | inhibition of the knock-out mutant of spc1 (in words) [3] | cell number ([6]; time 13) | cell number ([6]; time 16) | cell number ([6]; time 19) | cell number ([6]; time 22) | cell number ([6]; time 25) | cell number ([7]; time 13) | cell number ([7]; time 16) | cell number ([7]; time 19) | cell number ([7]; time 22) | cell number ([7]; time 25) | further results |
| --- | --- | --- | --- | --- | --- | --- | --- | --- | --- | --- | --- | --- | --- | --- | --- | --- | --- | --- | --- | --- | --- |
| CCCOc1cc2c(cc1OCCC)-c1cc3ccc(OCCC)c(OCCC)c3c[n+]1CC2.[I-] [2,3,9,10-tetrapropoxyprotoberberine iodide] | 20 µg/mL | 164 | 325 | 502 | 1041 | 1574 | inhibit | not inhibited | 382 | completely inhibited | 102 | 210 | 423 | 750 | 1575 | 96 | 113 | 265 | 645 | 1250 | cell number ([3]; Table 6, spc1 knock-out, time 12, miconazole 3 ug/mL): 201; cell number [3, 14]: 676; cell number [3, 15]: 1232; cell number [3, 16]: 1634; inhibition of the activity of Spc1 kinase, concluded from effects on knock-out mutants ([3]; conclusion from growth of knock-out mutants): inhibit; cell number [4, 17]: 117; cell number [4, 18]: 4; cell number [4, 19]: 7; cell number [4, 20]: 165; cell number [4, 21]: 228; cell number [5, 22]: 220; cell number [5, 23]: 207; cell number [5, 24]: 185; cell number [5, 25]: 167; cell number [5, 26]: 155 |
| COc1ccc2c(Cc3ccc(O[Si](C)(C)C(C)(C)C)cc3)c3[n+](cc2c1OC)CCc1cc2c(cc1-3)OCO2.[Cl-] [13-(4-(t-butyldimethylsilyloxy)benzyl)berberine chloride] | 7 µg/mL |  |  |  |  |  | inhibit | not inhibited |  | not inhibited at all | 31 | 16 | 16 | 26 | 33 | 37 | 52 | 25 | 36 | 23 | cell number ([2]; Table 2, wis1 knock-out, time 14): 257; cell number ([2]; Table 2, wis1 knock-out, time 17): 665; cell number ([2]; Table 2, wis1 knock-out, time 20): 1355; cell number ([2]; Table 2, wis1 knock-out, time 23): 3100; cell number ([3]; Table 2, spc1 knock-out, time 14): 57; cell number ([3]; Table 2, spc1 knock-out, time 17): 90; cell number ([3]; Table 2, spc1 knock-out, time 20): 173; cell number ([3]; Table 2, spc1 knock-out, time 23): 210; cell number ([4]; Table 2, Spm1 knock-out, time 14): 55; cell number ([4]; Table 2, Spm1 knock-out, time 17): 94; cell number ([4]; Table 2, Spm1 knock-out, time 20): 266; cell number ([4]; Table 2, Spm1 knock-out, time 23): 450; cell number ([5]; Table 2, byr2 knock-out, time 14): 34; cell number ([5]; Table 2, byr2 knock-out, time 17): 72; cell number ([5]; Table 2, byr2 knock-out, time 20): 156; cell number ([5]; Table 2, byr2 knock-out, time 23): 292 |
| COc1ccc2c(Cc3ccc(C(C)(C)C)cc3)c3[n+](cc2c1OC)CCc1cc2c(cc1-3)OCO2.[Cl-] [13-(4-t-butylbenzyl)berberine chloride] | 20 µg/mL | 154 | 319 | 538 | 1265 | 1788 | inhibit | not inhibited | 299 | partially inhibited | 28 | 26 | 17 | 37 | 13 | 24 | 45 | 36 | 23 | 19 | cell number [3, 14]: 488; cell number [3, 15]: 874; cell number [3, 16]: 1083; cell number [4, 17]: 89; cell number [4, 18]: 113; cell number [4, 19]: 131; cell number [4, 20]: 118; cell number [4, 21]: 125; cell number [5, 22]: 156; cell number [5, 23]: 150; cell number [5, 24]: 147; cell number [5, 25]: 136; cell number [5, 26]: 128 |
